{"source": "patent EP3118219A1", "about": "“NICOTINIC CHANNEL SUBUNITS OF […] AND THEIR USES THEREOF” (priority 2015, dated 2017)", "key": {"[1]": {"molecular_target": "T1, Apis mellifera nicotinic acetylcholine receptor Am-nAChRα7 (nAChR α7 subunit, SEQ ID NO: 7), expressed with ric3 (Apis mellifera, UniProt A0ACM8Q2V8)", "T1 sequence (A0ACM8Q2V8 21-555)": "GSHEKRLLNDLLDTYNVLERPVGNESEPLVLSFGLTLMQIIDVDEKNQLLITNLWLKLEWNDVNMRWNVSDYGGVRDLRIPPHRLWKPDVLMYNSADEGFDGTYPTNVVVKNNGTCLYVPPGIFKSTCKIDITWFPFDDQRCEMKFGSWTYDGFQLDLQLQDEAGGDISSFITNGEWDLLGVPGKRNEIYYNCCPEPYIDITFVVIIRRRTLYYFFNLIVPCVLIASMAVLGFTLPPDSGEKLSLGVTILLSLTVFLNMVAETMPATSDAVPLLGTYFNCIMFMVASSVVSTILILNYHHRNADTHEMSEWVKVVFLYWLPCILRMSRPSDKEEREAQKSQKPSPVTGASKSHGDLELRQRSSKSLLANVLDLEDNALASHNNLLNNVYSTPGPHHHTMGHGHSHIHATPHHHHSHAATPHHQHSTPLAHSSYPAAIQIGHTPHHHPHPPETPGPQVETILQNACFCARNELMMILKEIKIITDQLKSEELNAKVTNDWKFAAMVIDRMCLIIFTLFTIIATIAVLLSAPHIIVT", "test": "Two-electrode voltage-clamp dose-response on Xenopus laevis oocytes expressing the nAChRα7 subunit (with ric3)", "type": "cell-based", "experimental": "(§1) For example, ric3 (from C.elegans, the nucleic acid sequence being SEQ ID NO: 64 and the amino acid sequence being SEQ ID NO: 65, or honeybee) is clearly necessary to get a reliable expression of the nAChR α7 subunit and a response to ACh, while for the nAChRα5 subunit a cocktail of emc6, unc50 and unc74 chaperone proteins improves expression with response amplitude between 0.1 to several µA for ACh concentration between 1 to 1000µM (Figure 2). In the case of the nAChRα3 subunits, expression can be obtain either alone, or in combination with different cocktails of chaperone or with the vertebrate β2 nAChR subunits. Each of these combinations has a specific affinity for ACh. […]\n(§2) Typically, an oocyte, injected 2 to 5 days before with a given mixture of RNA is placed in the recording chamber filled with the desired solution (usually Na100). […] Both electrodes are then impaled into the oocyte and the resting membrane potential is measured (typically -30/- 50 mV). […] Sometime, the effect of a test compound can be determined directly, by applying 50 µl of the compound directly to the bath (with the main perfusion stopped) at the final working concentration (usually 100-1000 µM), after proper dilution from a stock solution (usually 10 mM in water or DMSO or ethanol) into the desired recording solution. […]"}, "[2]": {"system": "Apis mellifera nicotinic acetylcholine receptor Am-nAChRα5 (nAChRα5 subunit, SEQ ID NO: 5), expressed with unc74+unc50+emc6", "test": "Two-electrode voltage-clamp dose-response on Xenopus laevis oocytes expressing the nAChRα5 subunit (with unc74+unc50+emc6)", "type": "cell-based", "conditions": "current in Xenopus oocytes, dose-response curve; traces at 500 µM (Figure 4)", "experimental": "as §1, §2"}}, "data": [{"smiles": "CN/C(=N\\[N+](=O)[O-])NCc1cnc(Cl)s1", "note": "[clothianidin]", "values": [{"measurement": "EC50", "setting": "[1]", "value": "~10", "unit": "µM"}, {"measurement": "agonist efficacy compared with ACh", "setting": "[1]; dose-response curves of ACh and clothianidin recorded on the same oocyte (Figure 4C)", "value": "less effective agonist than ACh"}, {"measurement": "sensitivity to clothianidin", "setting": "[2]", "value": "completely insensitive"}]}]}
